# Values quoted from earlier work, collected in patent US7977431B2, “Dithiocarbamic esters” (LANXESS Deutschland GmbH, priority 2002, dated 2011).
# Details: for pKa value: parent form Z-H of substituent Z; for pKa value e Z-H: pKa of the protonated substituent Z of the regulator, not of the regulator itself
pKa value,pKa value e Z-H,Compound
16.6,,O=C1CCCCCN1 [2-azepanone]
16.6,,O=C1CCCCCCN1 [2-azocanone]
16.6,,O=C1CCCCN1 [2-piperidinone]
16.6,,CC(=O)Nc1ccccc1 [N-phenylacetamide]
,17.0,"C/C(Cl)=C/CSC(=S)n1cccc1 [Regulator compound (1), 3-chloro-2-butenyl 1H-pyrrole-1-carbodithioate]"
,14.5,"C/C(Cl)=C/CSC(=S)n1ccnc1 [Regulator compound (2), 3-chloro-2-butenyl 1H-imidazole-1-carbodithioate]"
,5.1,"CCN(C(=S)SCc1ccccc1)c1ccccc1 [Regulator compound (3), Benzyl ethyl-(phenyl)dithio-carbamate, reference compound]"
,5.1,"CCN(C(=S)SC(C)C(=O)OC)c1ccccc1 (stereo not shown) [Regulator compound (4), Methyl 2-({[ethyl-(phenyl)amino]-carbonothioyl}-sulphanyl)-propanoate, reference compound]"
,5.1,"CCN(C(=S)SC(C(=O)OC)c1ccccc1)c1ccccc1 (stereo not shown) [Regulator compound (5), Methyl ({[ethyl-(phenyl)amino]-carbonothioyl}-sulphanyl)(phenyl) acetate, reference compound]"
,5.1,"CCN(C(=S)SC/C=C(/C)Cl)c1ccccc1 [Regulator compound (6), reference compound]"
14.0,,c1cn[nH]c1 [pyrazole]
16.6,,N-(methyl/ethyl)acetamide

Compound,pKa value,pKa value e Z-H
c1ccc2c(c1)[nH]c1ccccc12 [carbazole],17,
